# Results from patent US20160158200A1, “Combinations of Hepatitis C Virus Inhibitors” (priority 2013, published 2016).
# Where two headings read alike, the source gives them in different places.
# Legend:
# [1] = test system: HCV genotype-1a variant with glutamine 30 changed to glutamate in the NS5A protein; assay type: cell-based; settings: test compound titrated with BMS-790052 fixed at 200 nM; genotype 1a Q30E replicon
# Method in brief: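 Synergy was assessed by combining several fixed amounts of an NS5A-targeting compound with a titration of the second compound of interest.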
# [2] = test system: HCV genotype-1a variant with glutamine 30 changed to glutamate in the NS5A protein; settings: cited from earlier work
# [3] = test system: HCV genotype 1a Y93H variant with tyrosine 93 changed to histidine in the NS5A protein; assay: microbe, parasite or virus in culture; assay type: cell-based; settings: for EC50: Hepatitis C virus; for Fold-Synergistic G-1a (Y93H): genotype 1a Y93H replicon, test compound titrated with compound N47 fixed at 200 nM versus singly
# Method in brief: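 In an HCV genotype 1a replicon cell-based assay carrying the NS5A Y93H substitution, BMS-790052 was tested alone and in combination with a fixed amount of a second test compound. The combinations were examined for synergistic activity.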
# [4] = test system: HCV genotype 1a L31V variant with leucine 31 changed to valine in the NS5A protein; assay: microbe, parasite or virus in culture; assay type: cell-based; settings: for EC50: Hepatitis C virus; for Fold-Synergistic G-1a (L31V): genotype 1a L31V replicon, test compound titrated with compound N47 fixed at 200 nM versus singly
# [5] = compound alone, genotype 1a Q30E replicon, read-out: EC50, titrated singly
# [6] = read-out: EC50, titrated singly
# [7] = read-out: EC50 in combination with compound N47
smiles,measurement,setting,value
CC(C)CC(=O)N[C@H](c1ncc(-c2ccc(-c3ccc(-c4cnc([C@@H](NC(=O)CC(C)C)C(C)C)[nH]4)cc3)cc2)[nH]1)C(C)C [Compound P-55],Fold-Synergistic 1a (Q30E),[1],>100 fold
same,synergistic inhibitory effect with the combination,[2]; P-55 titrated with BMS-790052 fixed at 200 nM,> 100 fold
same,EC50,[2]; [5],> 200 nM
same,EC50,"[2]; fixed BMS-790052 at 200 nM, genotype 1a Q30E, read-out: EC50 of P-55 in the presence of BMS-790052",~2 nM
"COC(=O)N[C@H](C(=O)N1CCC[C@H]1c1nc(-c2ccc(-c3ccc(-c4c[nH]c([C@@H]5CCCN5C(=O)[C@@H](NC(=O)OC)C(C)C)n4)cc3)cc2)c[nH]1)C(C)C [BMS-790052, reference compound]",EC50,[3]; [6],~69 nM
same,EC50,[3]; [7],< 0.5 nM
same,synergistic inhibitory effect for the combination,"[3]; titrated with 200 nM compound N47, genotype 1a Y93H",> 100 fold
same,EC50,[4]; [6],~56 nM
same,EC50,[4]; [7],< 0.5 nM
same,synergistic inhibitory effect with the combination,"[4]; titrated with 200 nM compound N47, genotype 1a L31V",> 100 fold
same,reciprocal synergistic inhibitory effect for the combination,[2]; BMS-790052 titrated with P-55 fixed at 200 nM,~100 fold
same,EC50,[2]; [5],~200 nM
same,EC50,"[2]; fixed P-55 at 200 nM, genotype 1a Q30E, read-out: EC50 of BMS-790052 in the presence of P-55",~2 nM
CN(C)[C@@H](C(=O)N1CCC[C@H]1C(=O)Nc1cccc(-c2ncc(-c3ccc4nc([C@@H]5CCCN5C(=O)[C@@H](c5ccccc5)N(C)C)[nH]c4c3)o2)c1)c1ccccc1,Fold-Synergistic G-1a (Y93H),[3],<10 fold
same,Fold-Synergistic G-1a (L31V),[4],<10 fold
COC(=O)N[C@@H](C(=O)N1CCC[C@H]1c1ncc(C#CC#Cc2cnc([C@@H]3CCCN3C(=O)[C@H](NC(=O)OC)c3ccccc3)[nH]2)[nH]1)c1ccccc1,Fold-Synergistic G-1a (Y93H),[3],<10 fold
same,Fold-Synergistic G-1a (L31V),[4],<10 fold
COC(=O)N[C@H](C(=O)N1CCCC[C@H]1c1nc(-c2ccc(-c3ccc4cc(-c5c[nH]c([C@@H]6CCCCN6C(=O)[C@@H](NC(=O)OC)C(C)C)n5)ccc4c3)cc2)c[nH]1)C(C)C,Fold-Synergistic G-1a (Y93H),[3],<10 fold
same,Fold-Synergistic G-1a (L31V),[4],>10 fold
COC(=O)N[C@H](C(=O)N1[C@@H]2C[C@@H]2C[C@H]1c1nc(-c2ccc3cc(-c4ccc5cc(-c6c[nH]c([C@@H]7C[C@H]8C[C@H]8N7C(=O)[C@@H](NC(=O)OC)C(C)C)n6)ccc5c4)ccc3c2)c[nH]1)C(C)C,Fold-Synergistic G-1a (Y93H),[3],<10 fold
same,Fold-Synergistic G-1a (L31V),[4],<10 fold
COC(=O)N[C@H](C(=O)N1CC(F)(F)C[C@H]1c1nc(-c2ccc(-c3ccc(-c4c[nH]c([C@@H]5CC(F)(F)CN5C(=O)[C@@H](NC(=O)OC)C(C)C)n4)cc3)cc2)c[nH]1)C(C)C,Fold-Synergistic G-1a (Y93H),[3],>100 fold
same,Fold-Synergistic G-1a (L31V),[4],>100 fold
COC(=O)N[C@H](C(=O)N1CCC[C@H]1c1nc2cc(-c3ccc4c(ccc5[nH]c([C@@H]6CCCN6C(=O)[C@@H](NC(=O)OC)C(C)C)nc54)c3)ccc2[nH]1)C(C)C,Fold-Synergistic G-1a (Y93H),[3],>100 fold
same,Fold-Synergistic G-1a (L31V),[4],>10 fold
